{
  "source": "PubChem BioAssay AID1993",
  "about": "(NMMLSC, 2009)",
  "note": "Active and inactive are the calls of the source.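 Rule for the calls: active = fluorescence area over time at least a quarter above or below the solvent control area (some results past the limit were not filed as active); inactive = the rest.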",
  "data": [
    {"tested_on": "U937 FPR-DeltaST, VLA-4 LDV-FITC binding, flow cytometry", "experiment": "fMLF receptor-driven LDV-FITC binding on U937 cells – cell-based, U937 FPR-DeltaST, flow cytometry, RGS protein inhibitor project (AID 1993)", "conditions": "at 10 µM; active compounds read high", "values": [
      {"smiles": "Cc1ccc(NC(=O)Cn2sc3nc(C)cc(C)c3c2=O)c(Cl)c1", "AUC": "23500 (inactive)"},
      {"smiles": "NS(=O)(=O)c1ccc(N/N=C/c2ccc(O)c(O)c2O)c([N+](=O)[O-])c1", "AUC": "20500 (inactive)"},
      {"smiles": "CCOC(=O)C1CCCN(C(=O)Cn2sc3nc(C)cc(C)c3c2=O)C1", "note": "(configuration not stated)", "AUC": 27900},
      {"smiles": "Cc1cccc(N2CCN(C(=O)Cn3sc4nc(C)cc(C)c4c3=O)CC2C)c1", "note": "(configuration not stated)", "AUC": 25500},
      {"smiles": "Cc1cc(C)c2c(=O)n(CC(=O)Nc3ccc(Cl)cc3)sc2n1", "AUC": "22800 (inactive)"},
      {"smiles": "O=c1c2ccccc2sn1-c1cc(S(=O)(=O)N2CCOCC2)ccc1N1CCCC1", "AUC": "19600 (inactive)"},
      {"smiles": "CCC(=O)NC1=C(Cl)C(=O)C(NC(=O)CC)=C(Cl)C1=O", "AUC": "11600 (inactive)"},
      {"smiles": "O=C1C(Cl)=C(N2CCCCC2)C(=O)C(Cl)=C1c1cnc(N2CCCCC2)s1", "AUC": "2540 (inactive)"},
      {"smiles": "Cc1cc(C)c2c(=O)n(CC(=O)Nc3cccc(F)c3)sc2n1", "AUC": "25000 (inactive)"},
      {"smiles": "O=C(NCCCN1CCOCC1)c1sc2cc([N+](=O)[O-])ccc2c1Cl", "AUC": 27100},
      {"smiles": "Nc1c(C(=O)NCC2CCCO2)sc2nc3c(c(-c4ccco4)c12)CC/C3=C\\c1ccco1", "note": "(configuration not stated)", "AUC": "455 (inactive)"},
      {"smiles": "CC(NC(=O)c1sc2cc([N+](=O)[O-])ccc2c1Cl)C(C)(C)C", "note": "(configuration not stated)", "AUC": 29100},
      {"smiles": "COc1ccc(OC)c(CCNC(=O)Cn2sc3nc(C)cc(C)c3c2=O)c1", "AUC": 26600},
      {"smiles": "CCN(CC)S(=O)(=O)c1cccc(C(=O)N/N=C/c2ccc(O)c(O)c2O)c1", "AUC": 26500},
      {"smiles": "O=c1c2ccccc2sn1-c1ccccc1", "AUC": "18300 (inactive)"},
      {"smiles": "Cc1[nH]n(-c2ccccc2)c(=S)c1C=Nc1cccc([N+](=O)[O-])c1", "AUC": 26500},
      {"smiles": "O=c1c2ccccc2sn1-c1ccc(S(=O)(=O)N2CCCC2)cc1", "AUC": "19400 (inactive)"}
    ]}
  ]
}
